According to patent publication US20260297101A1 (AbbVie Inc., priority 2015, published 2026):

Columns and labels:
[1] = Multiple-dose escalation pharmacokinetics in healthy subjects (Study 2-Part 1); conditions: 24 mg BID IR, Day 14, from Cmax to Ctrough ratio, harmonic mean ± pseudo-SD, 20160 min
Procedure: Both evaluations followed randomized, double-blind, placebo-controlled designs.
Study drug was administered approximately 30 minutes after a standard breakfast (in the morning) or a snack (in the evening). […] Subjects were confined to the study site and supervised for approximately 18 days.
Samples quantified below the LLOQ were reported as zero.
Renal clearance (CLr) was calculated as Au, 0-12/AUC0-12 at steady state.
Statistical analyses were performed using SAS software (Version 9.3; SAS institute Inc., Cary, NC, USA).

[2] = Solubility of upadacitinib in different aqueous media at 37 °C; conditions: low pH
[3] = QD ER tablet
Procedure: (§1) Part 1 was a multiple-dose, open-label, multiple-cohort study. Two sequential multiple-ascending dose levels (Low Dose and High Dose levels) were evaluated in the 12 to <18 years age group (Group 1), and one dose level (Low Dose) was evaluated in the two younger age groups (Group 2: 6 to <12 years, and Group 3: 2 to <6 years). Low Dose and High Dose cohorts in age group 1 enrolled 9 subjects each.
(§2) The study enrolled at least 10 subjects below 30 kg. Recruitment of subjects was conducted through a staggered approach based on age. […] Part 3 was an additional safety cohort. […] Part 3 was open to age groups in which Part 1 enrollment was completed. […] Doses were adjusted during the study for any of the body weight categories after review of results from the subjects who completed Study Part 1.
(§3) In Part 1, the dose was administered according to three body weight categories. Subjects were categorized based on age group, and the dose administered for seven consecutive days will be based on three different body weight categories per dose level shown in Table 29.
(§4) Patients (N=51) diagnosed with pcJIA were enrolled into one of four groups in an open-label, multiple-dose study (Group 1, 12 to <18 years, low dose; Group 2, 12 to <18 years, high dose; Group 3, 6 to <12 years, low dose; Group 4, 2 to <6 years, low dose). […]

clinical = conditions: human, in vivo, po, functional half-life (t1/2), BID IR oral solution
Procedure: as §1, §2, §3, §4

| Compound | t1/2F (functional half-life) [1] | solubility [2] | time to maximum upadacitinib concentration (Tmax) [3] | half-life (clinical) |
| --- | --- | --- | --- | --- |
| CC[C@@H]1CN(C(=O)NCC(F)(F)F)C[C@@H]1c1cnc2cnc3[nH]ccc3n12 [Compound 1, (3S,4R)-3-ethyl-4-(3H-imidazo[1,2-a]pyrrolo[2,3-e]pyrazin-8-yl)-N-(2,2,2-trifluoroethyl) pyrrolidine-1-carboxamide] | 3.3 ± 0.4 h |  |  |  |
| CC[C@@H]1CN(C(=O)NCC(F)(F)F)C[C@@H]1c1cnc2cnc3[nH]ccc3n12 [upadacitinib, (3S,4R)-3-ETHYL-4-(3H-IMIDAZO[1,2-a]PYRROLO[2,3-e]-PYRAZIN-8-YL)-N-(2,2,2-TRIFLUOROETHYL)PYRROLIDINE-1-CARBOXAMIDE] |  | good solubility at low pH | approximately 3 hours | ~2 h |
